Test results published in ChEMBL document CHEMBL5390286, “Discovery of Ingenane Diterpenoids from Euphorbia hylonoma as Antiadipogenic Agents” (J Nat Prod, 2023).
Activity calls are given as the source filed them. The rule behind the calls is not given here.

Assays:
[1] = system: 3T3-L1; assay: Anti-adipogenic efficacy in mouse 3T3-L1 cells assessed as inhibition of TG level by Oil Red O staining based light microscopic analysis; format: functional, cell-based
[2] = system: 3T3-L1; assay: Cytotoxicity against mouse 3T3-L1 cells assessed as reduction in cell viability at 20 uM by CCK-8 assay; format: toxicity, cell-based; settings: 3t3-l1, 20 µM
[3] = system: 3T3-L1; assay: Anti-adipogenic efficacy in mouse 3T3-L1 cells assessed as inhibition of TG level at 1 uM by Oil Red O staining based light microscopy analysis; format: functional, cell-based
[4] = system: 3T3-L1; assay: Anti-adipogenic efficacy in mouse 3T3-L1 cells assessed as reduction in PPARgamma mRNA level by RT-qPCR analysis; format: functional, cell-based; settings: dose 0.1-10 µM
[5] = system: 3T3-L1; assay: Anti-adipogenic efficacy in mouse 3T3-L1 cells assessed as reduction in C/EBPbeta mRNA level by RT-qPCR analysis; format: functional, cell-based; settings: dose 0.1-10 µM
[6] = system: 3T3-L1; assay: Anti-adipogenic efficacy in mouse 3T3-L1 cells assessed as reduction in FAS mRNA level by RT-qPCR analysis; format: functional, cell-based; settings: dose 0.1-10 µM
[7] = system: 3T3-L1; assay: Anti-adipogenic efficacy in mouse 3T3-L1 cells assessed as reduction in SCD-1 mRNA level by RT-qPCR analysis; format: functional, cell-based; settings: dose 0.1-10 µM
[8] = system: 3T3-L1; assay: Anti-adipogenic efficacy in mouse 3T3-L1 cells assessed as reduction in PPARgamma protein level by Western blot analysis; format: functional, cell-based; settings: dose 0.1-10 µM
[9] = system: 3T3-L1; assay: Anti-adipogenic efficacy in mouse 3T3-L1 cells assessed as reduction in C/EBPbeta protein level by Western blot analysis; format: functional, cell-based; settings: dose 0.1-10 µM
[10] = system: 3T3-L1; assay: Anti-adipogenic efficacy in mouse 3T3-L1 cells assessed as reduction in FAS protein level by Western blot analysis; format: functional, cell-based; settings: dose 0.1-10 µM
[11] = system: 3T3-L1; assay: Anti-adipogenic efficacy in mouse 3T3-L1 cells assessed as reduction in SCD-1 protein level by Western blot analysis; format: functional, cell-based; settings: dose 0.1-10 µM
[12] = system: 3T3-L1; assay: Anti-adipogenic efficacy in mouse 3T3-L1 cells assessed as increase in p-AMPK level at 0.1 to 10 uM by Western blot analysis; format: functional, cell-based; settings: dose 0.1-10 µM
[13] = system: 3T3-L1; assay: Anti-adipogenic efficacy in mouse 3T3-L1 cells assessed as increase in p-ACC level at 0.1 to 10 uM by Western blot analysis; format: functional, cell-based; settings: dose 0.1-10 µM

Row | Structure (SMILES) | EC50 [1] [nM] | Activity [2] | Activity [3] | Activity [4] | Activity [5] | Activity [6] | Activity [7] | Activity [8] | Activity [9] | Activity [10] | Activity [11] | Activity [12] | Activity [13]
1 | C=C1C[C@]23O[C@@](O)([C@@]4(O)C[C@H](C)[C@H](OC(=O)c5ccccc5)[C@@H]4[C@H]1OC(=O)c1ccccc1)[C@]1(C)O[C@](C)(CC2=O)C[C@H]31 | 360 | – | – | – | – | – | – | – | – | – | – | – | –
2 | C=C1C[C@]2(O)C(=O)C(C)(C)C[C@H]2C2=CC(=O)[C@]3(C[C@H](C)[C@H](OC(=O)c4ccccc4)[C@@H]3[C@H]1OC(=O)c1ccccc1)O2 | 200 | – | – | – | – | – | – | – | – | – | – | – | –
3 | CC1=C[C@@H]2C(=O)[C@]3(C=C(C)[C@H](OC(=O)C(C)C(C)C)[C@@]3(O)[C@@H]1O)[C@H](C)C[C@@H]1[C@H]2C1(C)C (stereo not given in full) | 600 | Non-Toxic | Active | Dose-Dependent Effect | Dose-Dependent Effect | Dose-Dependent Effect | Dose-Dependent Effect | Dose-Dependent Effect | Dose-Dependent Effect | Dose-Dependent Effect | Dose-Dependent Effect | Active | Active
